Test results published in patent US20250288704A1, “CXCR4-LIGANDS FOR DIAGNOSTIC AND THERAPEUTIC USE AND PRECURSORS THEREOF” (priority 2021, published 2025).
Starred links: 1 amine or outer side, 2 acyl side, 3 side chain; linkers in the order of their positions; H or OH if unused. Positions of bridges follow the written chain, without caps; N, C: chain ends. Non-standard residues stand in square brackets, D forms with d. Residues, ends and D or L forms follow the SMILES beside them. Groups on a side chain read outwards from the residue. Chains are numbered I, II in the order given. *: point of attachment. X7 = O=C(O)CN1CCN(CC(=O)O)CCN([C@H](CCC(=O)*)C(=O)O)CCN(CC(=O)O)CC1; Benzoyl(4-SiFtBu2) = CC(C)(C)[Si](F)(c1ccc(C(=O)*)cc1)C(C)(C)C; DOTA = O=C(O)CN1CCN(CC(=O)O)CCN(CC(=O)*)CCN(CC(=O)O)CC1; d(γGlu) = O=C(O)[C@@H](CCC(=O)[*:2])N[*:1]; dTyr(3-I) = N[C@H](Cc1ccc(O)c(I)c1)C(=O)O; 2Nal = N[C@@H](Cc1ccc2ccccc2c1)C(=O)O; dNMeOrn = CN[C@H](CCCN)C(=O)O; 4Abz = Nc1ccc(C(=O)O)cc1; dDap = NC[C@@H](N)C(=O)O; CO = O=C([*:1])[*:2]

How the values were obtained:
[1] = Octanol/PBS partition coefficient (logD7.4); type: physicochemical; conditions: n-octanol/PBS pH 7.4, radiolabeled compound
Protocol: The tubes were vortexed at maximum speed for 3 min to ensure equilibrium before centrifugation at 15.000×g for 5 min on a Biofuge 15 from Heraeus Holding GmbH (Osterode, Germany). An aliquot of 100 μL of each fraction was measured in the γ-counter and the log D7.4 calculated as follows: […]

[2] = tested on: CXCR4-expressing Chem_1 cells; test: Determination of internalization, dual tracer with 125I-Fc-131; type: cell-based; conditions: for Cell-bound [%] / Internalized [%]: of total cellular activity; for Internalization [% Fc-131] 2 h: 177Lu-labeled
Protocol: CXCR4-expressing Chem_1 cells were grown in DMEM-F12 medium supplemented with 10 vol % FBS, 1 vol % NEA, 1 vol % PenStrep and 1 vol % HEPES (1.00 M). Cells were maintained in a 5% CO2 atmosphere at 37° C.
For in vitro experiments, cells were harvested by removal of the medium and incubation of the cells with trypsine/EDTA (0.05%/0.02%; w/v) for 30 in at 37° C.
Each well (n=3 for every time point) was either treated with 25 μL DMEM-F12 (+5 wt % BSA) or 25 μL of an AMD3100 stock (1 mM in H2O) for blockage of the receptors.
The experiment was stopped by placing the well-plate on ice and removing the supernatant. The cells were washed with 250 μL cold HBSS and the both fractions for each well combined, comprising the amount of unbound radioligand.
The supernatant was removed, the cells washed with cold HBSS and the respective fractions combined to obtain the amount of surface-bound radioligand.
The cells were then incubated with 300 μL NaOH (1.00 M in H2O) for at least 30 at r.t. before the supernatant was removed. The well was washed with another 300 μL NaOH and the fractions combined that contain the amount of internalized radioligand.
The three different fractions were subjected to activity measurement in the γ-counter, measuring the activity of the radionuclide used for the labeling of the peptide under investigation first. […] Data was corrected for non-specific internalization and referred to the specific internalization of the standard ligand

Structure (SMILES)	logD7.4 [1]	Internalized in relation to 125I-Fc-131 [%] ([2]; 15 min)	Cell-bound [%] ([2]; 15 min)	Internalized [%] ([2]; 15 min)	Internalized in relation to 125I-Fc-131 [%] ([2]; 30 min)	Cell-bound [%] ([2]; 30 min)	Internalized [%] ([2]; 30 min)	Internalized in relation to 125I-Fc-131 [%] ([2]; 60 min)	Cell-bound [%] ([2]; 60 min)	Internalized [%] ([2]; 60 min)	Internalized in relation to 125I-Fc-131 [%] ([2]; 120 min)	Internalization [% Fc-131] 2 h [2]	Cell-bound [%] ([2]; 120 min)	Internalized [%] ([2]; 120 min)	Internalization [% Fc-131] ([2]; 90 min)	Internalized in relation to 125I-Fc-131 [%] ([2]; 90 min)	Cell-bound [%] ([2]; 90 min)	Internalized [%] ([2]; 90 min)
C[C@@H](NC(=O)[C@@H](CCCNC(=N)N)NC(=O)[C@@H](CN)NC(=O)CN1CCN(CC(=O)O)CCN(CC(=O)O)CCN(CC(=O)O)CC1)C(=O)Nc1ccc(C(=O)NCCC[C@@H]2C(=O)N[C@@H](CCCNC(=N)N)C(=O)N[C@@H](Cc3ccc4ccccc4c3)C(=O)NCC(=O)N[C@H](Cc3ccc(O)cc3)C(=O)N2C)cc1 [CXCR4-DOTA-3 [Lu]] (cyclo([dY][dNMeOrn]([4Abz-dA-dR-dDap-DOTA])R[2Nal]G))	−3.35 ± 0.19 (6)	180 ± 32.6%	6.46 ± 1.07%	15.2 ± 0.99%	259 ± 23.0%	9.88 ± 0.54%	22.2 ± 0.78%	289 ± 22.4%	13.4 ± 0.84%	33.4 ± 0.87%	366 ± 69.5%	366 % Fc-131	17.1 ± 2.69%	38.4 ± 1.78%	–	–	–	–
C[C@@H](NC(=O)[C@@H](CCCNC(=N)N)NC(=O)[C@@H](CN)NC(=O)[C@@H](CNC(=O)CC[C@H](C(=O)O)N1CCN(CC(=O)O)CCN(CC(=O)O)CCN(CC(=O)O)CC1)NC(=O)[C@@H](CNC(=O)c1ccc([Si](F)(C(C)(C)C)C(C)(C)C)cc1)NC(=O)CC[C@@H](NC(=O)N[C@H](CCC(=O)O)C(=O)O)C(=O)O)C(=O)Nc1ccc(C(=O)NCCC[C@@H]2C(=O)N[C@@H](CCCNC(=N)N)C(=O)N[C@@H](Cc3ccc4ccccc4c3)C(=O)NCC(=O)N[C@H](Cc3ccc(O)cc3)C(=O)N2C)cc1 [CXCR4-SiFA-4 [Ga]] (I: {dE-CO-d(γGlu)}-[dDap](Benzoyl(4-SiFtBu2))[dDap](X7)[dDap][dR][dA][4Abz] / II: cyclo([dY][dNMeOrn]R[2Nal]G); amide I:C-II:2)	−1.92 ± 0.06 (8)	–	–	–	56.6 ± 8.36%	0.10 ± 0.15%	1.36 ± 0.18%	–	–	–	–	–	–	–	58 % Fc-131	57.7 ± 5.43%	0.37 ± 0.20%	1.80 ± 0.15%
C[C@@H](NC(=O)[C@@H](CCCNC(=N)N)NC(=O)[C@@H](CN)NC(=O)CN1CCN(CC(=O)O)CCN(CC(=O)O)CCN(CC(=O)O)CC1)C(=O)Nc1ccc(C(=O)NCCC[C@@H]2C(=O)N[C@@H](CCCNC(=N)N)C(=O)N[C@@H](Cc3ccc4ccccc4c3)C(=O)NCC(=O)N[C@H](Cc3ccc(O)c(I)c3)C(=O)N2C)cc1 [CXCR4-DOTA-4 [Ga]] (cyclo([dTyr(3-I)][dNMeOrn]([4Abz-dA-dR-dDap-DOTA])R[2Nal]G))	−2.65 ± 0.22 (6)	–	–	–	–	–	–	–	–	–	–	–	–	–	–	–	–	–
C[C@@H](NC(=O)[C@@H](CCCNC(=N)N)NC(=O)[C@@H](CN)NC(=O)CN1CCN(CC(=O)O)CCN(CC(=O)O)CCN(CC(=O)O)CC1)C(=O)Nc1ccc(C(=O)NCCC[C@@H]2C(=O)N[C@@H](CCCNC(=N)N)C(=O)N[C@@H](Cc3ccc4ccccc4c3)C(=O)NCC(=O)N[C@H](Cc3ccc(O)cc3)C(=O)N2C)cc1 [CXCR4-DOTA-3 [Ga]] (cyclo([dY][dNMeOrn]([4Abz-dA-dR-dDap-DOTA])R[2Nal]G))	−3.35 ± 0.08 (5)	–	–	–	–	–	–	–	–	–	–	–	–	–	–	–	–	–
C[C@@H](NC(=O)[C@@H](CCCNC(=N)N)NC(=O)[C@@H](CN)NC(=O)[C@@H](CNC(=O)c1ccc([Si](F)(C(C)(C)C)C(C)(C)C)cc1)NC(=O)[C@@H](CCCCNC(=O)CC[C@H](C(=O)O)N1CCN(CC(=O)O)CCN(CC(=O)O)CCN(CC(=O)O)CC1)NC(=O)CC[C@H](C(=O)O)N1CCN(CC(=O)O)CCN(CC(=O)O)CCN(CC(=O)O)CC1)C(=O)Nc1ccc(C(=O)NCCC[C@@H]2C(=O)N[C@@H](CCCNC(=N)N)C(=O)N[C@@H](Cc3ccc4ccccc4c3)C(=O)NCC(=O)N[C@H](Cc3ccc(O)cc3)C(=O)N2C)cc1 [CXCR4-SiFA-3 [Ga]] (I: X7-[dK](X7)[dDap](Benzoyl(4-SiFtBu2))[dDap][dR][dA][4Abz] / II: cyclo([dY][dNMeOrn]R[2Nal]G); amide I:C-II:2)	−1.65 ± 0.09 (8)	–	–	–	–	–	–	–	–	–	–	–	–	–	–	–	–	–
C[C@@H](NC(=O)[C@@H](CCCNC(=N)N)NC(=O)[C@@H](CN)NC(=O)CN1CCN(CC(=O)O)CCN(CC(=O)O)CCN(CC(=O)O)CC1)C(=O)Nc1ccc(C(=O)NCCC[C@@H]2C(=O)N[C@@H](CCCNC(=N)N)C(=O)N[C@@H](Cc3ccc4ccccc4c3)C(=O)NCC(=O)N[C@H](Cc3ccc(O)c(I)c3)C(=O)N2C)cc1 [CXCR4-DOTA-4 [Lu]] (cyclo([dTyr(3-I)][dNMeOrn]([4Abz-dA-dR-dDap-DOTA])R[2Nal]G))	−2.89 ± 0.10 (6)	381 ± 16.2%	16.0 ± 0.58%	20.7 ± 0.59%	588 ± 34.1%	24.6 ± 1.38%	30.6 ± 1.56%	685 ± 50.1%	32.4 ± 0.60%	39.3 ± 0.52%	675 ± 47.4%	675 % Fc-131	37.2 ± 2.16%	53.23 ± 1.06%	–	–	–	–
